Measurements published in US7563782B2, “T-type calcium channel blocker” (Nissan Chemical Industries, Ltd., priority 2003, dated 2009).

Tests used:
[1] = target: T1, T-type Ca channel (α1G) (Homo sapiens, UniProt O43497); assay: Pharmacological Test Example 1: whole cell patch clamp, Ca current inhibition in BHK cells expressing T-type Ca channel; format: cell-based
T1 construct: expressed in transfected cells; host or cells: BHK (baby hamster kidney) cells
Protocol: (§1) Pharmacological Test Example 1 (effect on L-type and T-type Ca (calcium) channel expressed in mammalian cells (BHK cells))
(§2) In this test, an electrophysiological evaluation was carried out by use of BHK (baby hamster kidney) cells in which L-type Ca channel or T-type Ca channel (α1G) was expressed according to the method of Wakamori M et al. (Wakamori M et al.: J Biol Chem 273, 34857-34867,1998) based on the whole cell patch clamp method. Each Ca-ion current was measured through a patch clamp amplifier as an inward current when depolarization pulse (10 mV in L-type Ca channel, −20 mV in T-type Ca channel) was applied to cells maintained at a membrane potential of −80 mV. Optically active R-form or S-form of efonidipine was dissolved in extracellular solution and applied with perfusion. At 5 minutes after the application, any variation in Ca-ion current was measured. The results are shown in Ca current inhibition (%) of the compound of the present invention to Ca current (100%) in vehicle control.

[2] = system: L-type Ca channel; assay: Pharmacological Test Example 1: whole cell patch clamp, Ca current inhibition in BHK cells expressing L-type Ca channel; format: cell-based; details: for Inhibition (%): L-type Ca channel, BHK cells, 5 minutes after application, mean ± SE
Protocol: as §1, §2

[3] = T-type Ca channel, concentration 0.1 μM, BHK cells, 5 minutes after application, mean ± SE, 0.1 µM

T1 sequence (O43497 whole entry): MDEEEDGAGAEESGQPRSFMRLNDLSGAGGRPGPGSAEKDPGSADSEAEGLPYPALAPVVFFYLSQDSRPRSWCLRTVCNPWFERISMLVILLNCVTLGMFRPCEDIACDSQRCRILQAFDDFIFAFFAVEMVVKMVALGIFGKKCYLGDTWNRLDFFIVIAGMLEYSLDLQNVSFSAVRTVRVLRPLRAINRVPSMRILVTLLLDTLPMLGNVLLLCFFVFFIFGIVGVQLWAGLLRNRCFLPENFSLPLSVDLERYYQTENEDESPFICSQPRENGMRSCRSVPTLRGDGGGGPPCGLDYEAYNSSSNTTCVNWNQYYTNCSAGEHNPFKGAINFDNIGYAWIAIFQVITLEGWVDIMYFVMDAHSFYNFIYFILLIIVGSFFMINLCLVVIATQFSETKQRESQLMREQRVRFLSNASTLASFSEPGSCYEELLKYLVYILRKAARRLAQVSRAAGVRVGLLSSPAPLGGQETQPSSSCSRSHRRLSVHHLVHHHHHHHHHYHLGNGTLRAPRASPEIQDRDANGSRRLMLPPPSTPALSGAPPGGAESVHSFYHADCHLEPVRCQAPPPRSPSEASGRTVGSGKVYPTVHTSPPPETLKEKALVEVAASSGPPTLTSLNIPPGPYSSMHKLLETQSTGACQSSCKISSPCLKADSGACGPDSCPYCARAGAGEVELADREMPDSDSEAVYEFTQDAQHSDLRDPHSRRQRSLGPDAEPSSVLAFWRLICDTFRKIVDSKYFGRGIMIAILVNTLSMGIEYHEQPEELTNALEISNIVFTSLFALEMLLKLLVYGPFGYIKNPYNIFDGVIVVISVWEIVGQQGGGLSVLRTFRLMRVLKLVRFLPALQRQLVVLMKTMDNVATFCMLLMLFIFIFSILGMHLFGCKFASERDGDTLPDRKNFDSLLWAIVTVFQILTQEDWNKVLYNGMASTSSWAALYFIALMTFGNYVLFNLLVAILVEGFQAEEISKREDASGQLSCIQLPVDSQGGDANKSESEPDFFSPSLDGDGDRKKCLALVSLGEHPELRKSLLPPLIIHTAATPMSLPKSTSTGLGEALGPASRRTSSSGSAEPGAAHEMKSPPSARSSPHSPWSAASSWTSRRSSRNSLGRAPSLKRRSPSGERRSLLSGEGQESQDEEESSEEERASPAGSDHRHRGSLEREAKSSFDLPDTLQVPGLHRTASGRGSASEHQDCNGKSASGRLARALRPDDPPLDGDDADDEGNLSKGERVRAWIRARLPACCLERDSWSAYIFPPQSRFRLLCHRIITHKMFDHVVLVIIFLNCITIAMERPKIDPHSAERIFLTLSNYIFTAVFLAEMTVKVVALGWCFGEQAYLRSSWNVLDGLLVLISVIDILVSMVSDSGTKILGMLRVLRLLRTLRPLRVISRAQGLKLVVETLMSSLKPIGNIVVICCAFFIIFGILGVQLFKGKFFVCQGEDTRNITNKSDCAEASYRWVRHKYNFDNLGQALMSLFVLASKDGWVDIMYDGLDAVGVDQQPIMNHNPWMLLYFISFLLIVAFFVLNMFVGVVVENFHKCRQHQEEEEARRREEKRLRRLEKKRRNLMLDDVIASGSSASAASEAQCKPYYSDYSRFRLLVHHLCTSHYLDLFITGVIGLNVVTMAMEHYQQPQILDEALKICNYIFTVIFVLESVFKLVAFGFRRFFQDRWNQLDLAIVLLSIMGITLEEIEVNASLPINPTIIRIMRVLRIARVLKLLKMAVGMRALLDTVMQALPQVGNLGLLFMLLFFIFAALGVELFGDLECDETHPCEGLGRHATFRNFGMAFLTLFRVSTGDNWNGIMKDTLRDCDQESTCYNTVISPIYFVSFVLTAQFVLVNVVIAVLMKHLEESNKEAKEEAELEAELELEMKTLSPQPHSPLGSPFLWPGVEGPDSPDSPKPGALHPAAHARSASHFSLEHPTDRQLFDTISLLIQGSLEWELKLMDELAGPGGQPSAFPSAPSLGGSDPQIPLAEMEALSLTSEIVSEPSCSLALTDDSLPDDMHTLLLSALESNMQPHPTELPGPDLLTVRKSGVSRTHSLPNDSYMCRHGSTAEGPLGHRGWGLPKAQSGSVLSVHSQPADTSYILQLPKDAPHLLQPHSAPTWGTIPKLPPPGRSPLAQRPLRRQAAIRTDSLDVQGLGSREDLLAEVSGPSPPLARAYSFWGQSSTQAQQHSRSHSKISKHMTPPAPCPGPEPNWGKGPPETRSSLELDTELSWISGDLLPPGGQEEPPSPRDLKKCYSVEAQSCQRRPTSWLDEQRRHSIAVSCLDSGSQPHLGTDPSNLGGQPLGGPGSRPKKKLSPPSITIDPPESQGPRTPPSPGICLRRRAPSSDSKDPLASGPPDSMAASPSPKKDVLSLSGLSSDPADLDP

| SMILES | inhibition at 1 µM ([1]; BHK, T-type Ca channel, concentration 1 μM, BHK cells, 5 minutes after application, mean ± SE) [%] | inhibition at 10 µM ([1]; BHK, T-type Ca channel, concentration 10 μM, BHK cells, 5 minutes after application, mean ± SE) [%] | Inhibition (%) [1, 3] [%] | selectivity for T-type Ca channel ([1]; T-type versus L-type Ca channel) | inhibition for T-type Ca channel (in words) ([1]; concentration of 0.1 μM or more) | Inhibition (%) ([2]; concentration 10 μM) | inhibition for L-type Ca channel (in words) ([2]; concentration of 10 μM) | Inhibition (%) ([1]; T-type Ca channel, concentration 1 μM, BHK cells, 5 minutes after application, mean ± SE, 1 µM) | Inhibition (%) ([1]; T-type Ca channel, concentration 10 μM, BHK cells, 5 minutes after application, mean ± SE, 10 µM) | Inhibition (%) ([2]; concentration 1 μM) |
| --- | --- | --- | --- | --- | --- | --- | --- | --- | --- | --- |
| CC1=C(C(=O)OCCN(Cc2ccccc2)c2ccccc2)C(c2cccc([N+](=O)[O-])c2)C(P2(=O)OCC(C)(C)CO2)=C(C)N1 (centres unmarked) [Efonidipine R-form, 1,4-dihydro-2,6-dimethyl-5-(5,5-dimethyl-2-oxo-1,3,2-dioxaphosphorinan-2-yl)-4-(3-nitrophenyl)-3-pyridine carboxylic acid 2-[benzyl (phenyl)amino]ethylester] | 41.7 ± 5.3 | 72.7 ± 5.6 | 19.4 ± 4.88 | high selectivity | concentration-dependent inhibition | 2.2 ± 3.4 | did not show any inhibition | – | – | – |
| CC1=C(C(=O)OCCN(Cc2ccccc2)c2ccccc2)C(c2cccc([N+](=O)[O-])c2)C(P2(=O)OCC(C)(C)CO2)=C(C)N1 (centres unmarked) [Efonidipine S-form, 1,4-dihydro-2,6-dimethyl-5-(5,5-dimethyl-2-oxo-1,3,2-dioxaphosphorinan-2-yl)-4-(3-nitrophenyl)-3-pyridine carboxylic acid 2-[benzyl (phenyl)amino]ethylester, reference compound] | – | – | 7.7 | – | – | – | – | 42.9 ± 8.4 | 75.6 ± 7.1 | 55.6±7.1 |
